Publication PMC8557901 (Microbiology Spectrum, 2021)

How the values were obtained:
[1] = MTT cell viability assay, simian primary hepatocytes; format: cell-based; details: Macaca fascicularis (cynomolgus monkey), primary hepatocytes (cryopreserved)
Source text: Primary human hepatocytes were isolated from liver segments obtained from adult patients undergoing partial hepatectomy (Service de Chirurgie Digestive, Hépato-Bilio Pancréatique, Hôpital Pitié Salpêtrière, Paris, France). Primary simian hepatocytes were isolated from liver segments collected from healthy Macaca fascicularis monkeys from CEA, Fontenay aux Roses, France. All hepatocytes were obtained using collagenase perfusion as previously described ([40]). Simian hepatocytes were immediately cryopreserved with a Nicool-Freezal controlled rate freezer (Air Liquide Santé, Marne la Vallée, France) and then used when needed after fast thawing at 37°C. Primary murine hepatocytes were isolated from liver segments collected from BALB/c mice. Human and murine hepatocytes were used directly after their isolation. Cells were seeded in 96-well plates (Falcon; Becton Dickinson Labware Europe, France) coated with collagen I (BD Bioscience, USA) at a density of 80,000 cells per well. […]
The toxicity of M1 toward primary hepatocytes and HepG2-CD81 cells was evaluated through the MTT {[3-(4,5-dimethyl-2-thiazolyl)-2,5-diphenyl-2H-tetrazolium bromide]} test ([42]). […] Then, MTT was replaced by a mixture of DMSO-ethanol (1:1) to dissolve formazan crystals and the absorbance was read at 540 nm on a FlexStation plate reader.

[2] = test system: P. falciparum liver-stage parasites in human primary hepatocytes; assay: In vitro liver-stage development, P. falciparum in human primary hepatocytes; format: cell-based, Plasmodium falciparum
Source text: Primary human hepatocytes were isolated from liver segments obtained from adult patients undergoing partial hepatectomy (Service de Chirurgie Digestive, Hépato-Bilio Pancréatique, Hôpital Pitié Salpêtrière, Paris, France). Primary simian hepatocytes were isolated from liver segments collected from healthy Macaca fascicularis monkeys from CEA, Fontenay aux Roses, France. All hepatocytes were obtained using collagenase perfusion as previously described ([40]). […] Primary murine hepatocytes were isolated from liver segments collected from BALB/c mice. Human and murine hepatocytes were used directly after their isolation. Cells were seeded in 96-well plates (Falcon; Becton Dickinson Labware Europe, France) coated with collagen I (BD Bioscience, USA) at a density of 80,000 cells per well. […] For human hepatocytes, the complete medium was supplemented with 2% dimethyl sulfoxide (DMSO; Sigma-Aldrich, USA) before infection to preserve their differentiation.
On the day of infection, 3 · 10^4 sporozoites of P. falciparum, P. yoelii, and P. cynomolgi were added to their respective host cell cultures (human, murine, and simian). The infected culture plates were centrifuged for 10 min at 900 × g, allowing fast parasite sedimentation, and further incubated with serial dilutions of M1. Culture medium containing the appropriate drug concentration was refreshed daily, and cells were fixed at 48 h postinfection (p.i.) for infections with P. yoelii, 6 days p.i. for P. falciparum, or 8 days p.i. for P. cynomolgi. For the in vitro sporozoite invasion experiments, P. falciparum sporozoites were preincubated with 1, 10, and 100 μM M1 for 1 h at room temperature before hepatocyte infections. Three hours later, after sporozoite penetration into hepatocytes, cultures were washed and then further incubated with or without the presence of the drug during 6 days. DMSO was used as a negative control.
The number, size, and shape of the parasites were determined using a CellInsight high-content screening platform equipped with Studio HCS software (ThermoFisher Scientific). […] Host cell and parasite nuclei were labeled with DAPI (4′,6-diamidino-2-phenylindole). […] The custom script used for counting and measuring parasites first required identification of the objects based on a fluorescence intensity threshold. The object identity was then further validated based on size and morphological (shape) criteria. The presence of DAPI-associated fluorescence in the selected objects allowed their final selection and the rejection of false positives. […] The parasitic size reduction was calculated on the average object area using the total surface area of each selected object (μm^2).

[3] = Cytotoxicity on the MDCK renal cell line (MTT); format: cell-based, canine; details: dog, MDCK cells
Experimental: MDCK cell line (Madin-Darby Canine Kidney cells) was maintained at 37 °C, 5% CO2 with 90% humidity in DMEM supplemented with 5% fetal bovine serum, 1% L-glutamine (200 mM), penicillin (100 U/mL) and streptomycin (100 μg/mL) (complete medium). The evaluation of Gamhepathiopine cytotoxicity on this cell line was performed according to the method of Mosman with slight modifications. Briefly, 3.10^4 cells in 100 μL of complete medium were inoculated into each well of 96-well plates and incubated at 37 °C in a humidified 5% CO2. After 24 h incubation, to obtain adherent cells, 100 μL of medium with various concentrations of Gamhepathipoine dissolved in DMSO were added and refreshed on a daily basis for 72 h at 37 °C. Each sample was tested on 4 technical replicates. The MTT solution (100µL/well, 0.5 mg/mL in medium without FBS) was then added to each well. Cells were incubated for 4 h at 37 °C. The MTT solution was then removed and a mixture of DMSO/Ethanol (1:1; 100 μL/well) was added to dissolve the resulting blue formazan crystals. The absorbance was measured at 540 nm on a Flex Station Microplate Reader.

Cc1ccc(-c2cc3nc(NC(C)(C)C)[nH]c(=O)c3s2)cc1 [Metabolite M1, 2-(tert-Butylamino)-6-(p-tolyl)thieno[3,2-d]pyrimidin-4(3H)-one]
CC50 at 8 days [1]: > 60 µM | concentration from which liver-stage development was fully inhibited ([2]; P. falciparum in human hepatocytes): 14 µM | EC50 ([2]; Plasmodium falciparum, Hepatocyte, P. falciparum in human primary hepatocytes (HH), mean ± SEM of triplicate experiments, read-out: EC50 against liver-stage parasites): 0.45 ± 0.15 µM | SI (selectivity index) ([2]; hepatocyte CC50/EC50, P. falciparum (HH)): >133 | Size reduction at 10 μM (%) ([2]; parasite (schizont) size, 10 μM, P. falciparum (HH)): 80% | CC50 at 72 h [3]: 39.5 µM
